One assay has as its target T1, muscarinic M1 receptors (Homo sapiens, UniProt P11229).
T1 sequence (P11229 1-460): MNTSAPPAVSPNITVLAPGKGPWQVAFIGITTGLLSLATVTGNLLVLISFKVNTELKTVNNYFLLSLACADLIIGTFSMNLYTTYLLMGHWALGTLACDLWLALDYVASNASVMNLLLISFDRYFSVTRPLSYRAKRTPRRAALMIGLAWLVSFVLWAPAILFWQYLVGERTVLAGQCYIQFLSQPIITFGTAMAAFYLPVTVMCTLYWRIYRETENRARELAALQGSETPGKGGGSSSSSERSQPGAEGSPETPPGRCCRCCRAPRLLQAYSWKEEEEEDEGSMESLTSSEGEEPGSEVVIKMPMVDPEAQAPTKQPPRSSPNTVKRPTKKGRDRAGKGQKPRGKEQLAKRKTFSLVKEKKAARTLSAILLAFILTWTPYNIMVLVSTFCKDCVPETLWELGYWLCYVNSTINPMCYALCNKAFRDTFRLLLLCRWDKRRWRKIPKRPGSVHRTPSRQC
The assay is described as follows: Radioligand binding muscarinic M1 binding assay. As to conditions: for competition with [3H] N-methylscopolamine for binding to muscarinic M1 receptors: in words, refers to Table 1. Here is the method: (§1) The binding assay methodology was an adaptation of the methodology set out in Buckley N J, Bonner T I, Buckley C M and Brann M R (1989), Antagonist binding properties of five cloned muscarinic receptors expressed in CHO-K1 cells. Mol Pharmacol. 35(4): 469-476 and Luthin G R and Wolfe B B (1984), Comparison of [^3H]pirenzepine and [^3H]quinuclidinylbenzilate binding to muscarine cholinergic receptors in rat brain. J Pharmacol Exp Ther. 228(3):648-655.
(§2) The binding assay was performed under the following conditions:
(§3) Source: human recombinant CHO cells
(§4) Ligand: 0.8 nM [^3H] N-Methylscopolamine
(§5) Incubation Time/Temp: 2 hours at 25° C.
(§6) Incubation Buffer: 50 mM Tris-HCl, pH 7.4, 10 mM MgCl2, 1 mM EDTA
(§7) Non-specific Ligand: 1 μM Atropine
(§8) Quantification Method: radioligand binding Significance Criteria: ≧50% of max stimulation of inhibition

The target in the next assay is T2, muscarinic M3 receptors (Homo sapiens, UniProt P20309).
T2 construct: expressed in transfected cells; host or cells: CHO cells
T2 sequence (P20309 whole entry): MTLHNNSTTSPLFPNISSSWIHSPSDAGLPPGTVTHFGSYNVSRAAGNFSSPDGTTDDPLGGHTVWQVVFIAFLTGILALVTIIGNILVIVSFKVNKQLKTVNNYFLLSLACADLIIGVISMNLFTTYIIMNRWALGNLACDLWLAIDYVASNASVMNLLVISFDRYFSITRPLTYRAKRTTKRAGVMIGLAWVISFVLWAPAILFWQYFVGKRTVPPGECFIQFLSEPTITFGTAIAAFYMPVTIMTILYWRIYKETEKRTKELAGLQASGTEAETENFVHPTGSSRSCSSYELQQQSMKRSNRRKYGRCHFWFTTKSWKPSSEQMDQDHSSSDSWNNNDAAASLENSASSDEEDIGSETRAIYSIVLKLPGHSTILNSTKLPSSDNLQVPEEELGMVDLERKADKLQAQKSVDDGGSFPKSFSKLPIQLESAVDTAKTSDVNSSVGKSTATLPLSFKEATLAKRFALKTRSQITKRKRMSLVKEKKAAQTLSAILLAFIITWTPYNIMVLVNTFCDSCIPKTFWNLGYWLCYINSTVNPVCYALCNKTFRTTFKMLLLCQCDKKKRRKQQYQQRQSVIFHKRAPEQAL
The assay is described as follows: Radioligand binding muscarinic M3 binding assay. As to conditions: for competition with [3H] N-methylscopolamine for binding to muscarinic M3 receptors: in words, refers to Table 2. The protocol:
as §1, §2, §3, §4, §5, §6, §7
Bmax: 534 pmol/mg protein
as §8

Assay [1] relates to rats with denervation induced HDIR. Nature of the assay: RIST, reversal of HISS dependent insulin resistance caused by anterior hepatic plexus denervation (Example 8). As to conditions: for reversal of denervation induced HDIR: in words (FIG. 1); for % Potentiation: potentiation of denervated RIST index; for potentiation for reversing denervation induced HDIR: dose not stated (FIG. 1). Type of assay: in vivo, male Spraque Dawely rats. Here is the method:
The test subjects were male Spraque Dawely rats (supplied by Charles River or The University of Manitoba) weighing between 222.0 to 375 g. The rats were separated into three test groups: For each test group, the rats were fasted for an 8 hour period and then re-fed for a 2 hour period. The rats were anesthetized with pentobarbital sodium (65 mg/kg) and were prepared surgically according to the standard animal preparation used to conduct a control RIST test (Lautt et al., 1998). After surgery the rat stabilizes for 30 minutes. Following the stabilization period and establishment of a baseline, a control RIST was carried out to show the amount of glucose needed to maintain euglycemia after a bolus administration of insulin (50 mU/kg i.v.). The animal underwent surgery to cause insulin resistance. Anterior plexus denervation and portal puncture was performed. After an hour of recovery time a post-denervation RIST was carried out. The inclusion criteria is a RIST index≧250 mg glucose/kg≦140 mg glucose/kg. For each test group, the test compound was administered at various doses μg/kg intraportal venous (0.5 mL bolus, rate of 0.05 mL/min plus 0.03 mL dead-space volume). Following administration of the test compound, a post-administration RIST was carried out and the potentiation calculated as follows: [(Reversal RIST Index−Blocked RIST Index)/Blocked RIST Index]×(100%)=% Potentiation. […] Each test group was repeated using various doses of each test compound to establish a dose-response curve. The doses were determined based upon initial findings.

The subject of assay [2] is rats with insulin resistance produced by hepatic denervation. The assay is described as follows: RIST, insulin sensitivity in rats with insulin resistance produced by hepatic denervation (Examples 5-7). Type of assay: in vivo, male Spraque Dawely rats. As to conditions: total dose into the portal vein 0.001 to 0.1 μg/kg beginning 10 minutes prior to insulin (50 mU/kg i.v.); present-tense example.
Method: The test subjects are male Spraque Dawely rats. The male rat is fasted for an 8 hour period and then re-fed for a 2 hour period. The rat is anesthetized with pentobarbital sodium (65 mg/kg) and is prepared surgically according to the standard animal preparation used to conduct a RIST test (Lautt et al., 1998). After surgery the rat stabilizes for 30 minutes.
Following the stabilization period and establishment of a baseline, a control RIST is carried out to show the amount of glucose needed to maintain euglycemia after a bolus administration of insulin (50 mU/kg i.v.).
The animal undergoes surgery to cause insulin resistance. Surgical denervation of hepatic nerves reaching the liver along the hepatic artery is done. After an hour of recovery time a RIST is then carried out.
Racemic bethanechol is administered to the rat that has been surgically denervated with a total dose into the portal vein of (0.001 to 0.1) μg/kg beginning 10 minutes prior to the insulin administration.
(R)-bethanechol is administered to the rat that has been surgically denervated with a total dose into the portal vein of (0.001 to 0.1) μg/kg beginning 10 minutes prior to the insulin administration.
(S)-bethanechol is administered to the rat that has been surgically denervated with a total dose into the portal vein of (0.001 to 0.1) μg/kg beginning 10 minutes prior to the insulin administration.

In assay [3] the test system is hepatic glutathione (GSH). The assay is described as follows: Hepatic glutathione levels in denervated rats (Bioxytech GSH420 kit). Conditions: compared to animals treated with (R)-bethanechol or racemic bethanechol; present-tense example. Type of assay: in vivo. Here is the method:
Hepatic glutathione (GSH) levels are determined for test animals from Example 8 which have a control RIST of ≧170 mg glucose/kg≦250 mg glucose mg/kg.
Following the post-denervation RIST analysis, a liver sample is taken from each test animal using cork borer #4 or #5 to remove a section of liver from the left lateral liver lobe. The top and bottom (1-2 mm) of the sample are trimmed and cut into 2 equal pieces. The samples are flash frozen on dry ice in tin foil, and are labeled with the experiment number and date. The samples are stored at −80 until GSH analysis is performed. Liver GSH levels are determined using the Bioxytech GSH420 kit.

Where [4] appears, read: compound 100 μm, 0.8 nM [3H] N-Methylscopolamine, human recombinant CHO cells.
[5] abbreviates: as compared to R-bethanechol and racemic bethanechol.

As to `C[C@H](C[N+](C)(C)C)OC(N)=O.[Cl-]` [(R)-bethanechol, (R)-(−)-2-Carbamyloxy-1-(N,N,N-trimethyl)-propylammonium chloride], the “% Inhibition” value at muscarinic M1 receptors (setting [4]) is listed as 0%; at muscarinic M3 receptors (setting [4]), −11%. Besides, the “competition with [3H] N-methylscopolamine for binding to muscarinic M1 receptors” value on muscarinic M1 receptors is given as “did not compete”. Further, the “competition with [3H] N-methylscopolamine for binding to muscarinic M3 receptors” value on muscarinic M3 receptors is “did not compete”. For the same compound, the “reversal of denervation induced HDIR” value in assay [1] is given as “no significant reversal”. Also, the “RIST index: restoration of insulin sensitivity” value (“RIST index: restoration” below) in assay [2] is on record as “does not significantly restore insulin sensitivity”.

With `C[C@@H](C[N+](C)(C)C)OC(N)=O.[Cl-]` [(S)-bethanechol, (S)-(+)-2-Carbamyloxy-1-(N,N,N-trimethyl)-propylammonium chloride], the “binding affinity for muscarinic M1 receptors” value at muscarinic M1 receptors (setting [5]) is “significantly higher”. Besides, the “% Inhibition” value on muscarinic M1 receptors (setting [4]) was determined as 31%; on muscarinic M3 receptors (setting [4]) it was 42%. Moreover, the “binding affinity for muscarinic M3 receptors” value on muscarinic M3 receptors (setting [5]) is listed as “significantly higher”. In addition, the “% Potentiation” value is reported as −1.81% in assay [1] (dose 0.005 μg/kg intraportal venous); −13.01% in assay [1] (dose 0.010 μg/kg intraportal venous); 12.24% in assay [1] (dose 0.025 μg/kg intraportal venous); 34.66% in assay [1] (dose 0.050 μg/kg intraportal venous); 48.29% in assay [1] (dose 0.100 μg/kg intraportal venous); 58.16% in assay [1] (dose 0.250 μg/kg intraportal venous). Further, the “% Potentiation” value is given as 71.19% in assay [1] (dose 0.500 μg/kg intraportal venous), 69.08% in assay [1] (dose 0.750 μg/kg intraportal venous), 57.21% in assay [1] (dose 2.000 μg/kg intraportal venous) and 40.27% in assay [1] (dose 5.000 μg/kg intraportal venous). Moreover, the “potentiation for reversing denervation induced HDIR” value in assay [1] is on record as “ca. 72%”. Further, in assay [1] (doses ranging between 0.025 to 5.000 μg/kg, 0.250 to 2.000 μg/kg greatest % potentiation), the “reversal of denervation-induced HDIR over dose range” value is reported as “reversed denervation-induced HDIR”. The “reversal of denervation induced HDIR” value in assay [1] is listed as “substantial reversal”. Moreover, the “RIST index: restoration” value in assay [2] is recorded as “restores insulin sensitivity better than racemic bethanecol”. The “increases in hepatic GSH levels” value in assay [3] is given as “greater increases in hepatic GSH levels”.

As to `CC(C[N+](C)(C)C)OC(N)=O` (racemic) [racemic bethanechol, bethanechol], on muscarinic M1 receptors (setting [4]), the inhibition at 100 µM is -4%. Besides, on muscarinic M1 receptors, the “competition with [3H] N-methylscopolamine for binding to muscarinic M1 receptors” value is reported as “did not compete”. The inhibition at 100 µM at muscarinic M3 receptors (setting [4]) was -5%. For the same compound, at muscarinic M3 receptors, the “competition with [3H] N-methylscopolamine for binding to muscarinic M3 receptors” value is on record as “did not compete”. For the same compound, in assay [1], the “potentiation for reversing denervation induced HDIR” value is “ca. 52%” and the “reversal of denervation induced HDIR” value is on record as “substantial reversal”. The “RIST index: restoration” value in assay [2] is “restores insulin sensitivity”.

(Values after US20090324701A1, “COMPOSITIONS CONTAINING (S)-BETHANECHOL AND THEIR USE IN THE TREATMENT OF INSULIN RESISTANCE, TYPE 2 DIABETES, GLUCOSE INTOLERANCE AND RELATED DISORDERS” (DIAMEDICA, INC., priority 2006, published 2009).)
